Tested on: PC3M xenografts
Assay: In vivo assessment in nude mice bearing PC3M xenografts
Details: once daily i.p. dose of 50 mg/kg, over 21 days
Protocol: Xenografts were established in nude mice by subcutaneous injection of 5×10^6 PC3M-Luc-C6 cells. After 8 days, mice bearing tumours of approximately 60 mm^3 in volume were randomised into 3 treatment groups of 8 mice in each. One group of mice received intraperitoneal injection (i.p.) of 50 mg/kg SU1433 once daily dissolved in a vehicle of 5% (v/v) DMSO, 5% (v/v) solutol HS15 and 15% (w/v) hydroxypropyl-p-cyclodextrin in water for injection (90%) for a total of 21 days. Another group received once daily i.p. injection of the vehicle (100 μL) alone whilst the last group received no treatment. To monitor potential toxicity, body weight was measured daily, and experimental animals were evaluated for signs of distress using standard guidelines. Mice whose xenografts reached 1,900 mm^3 were euthanised. Subcutaneous tumours were measured with calipers immediately before treatment and every 2 or 3 days thereafter. On the assumption of ellipsoidal geometry, diameter measurements were converted to an approximate volume by multiplying half the longest diameter by the square of the mean of the 2 shorter diameters. For every animal, relative tumour volume (volume at any time point divided by volume immediately before treatment) was plotted against time, and the area under the time-volume curves was determined by trapezoidal approximation. […]

For CC(C)(C)C#Cc1cc(-c2ccnc(N)c2)cc2c(N)n[nH]c12 [Example 137, 5-(2-Aminopyridin-4-yl)-7-(3,3-dimethylbut-1-yn-1-yl)-1H-indazol-3-amine], the “inhibition of tumour growth” value was “approximately 60%”.

— patent US20250304576A1 (Cancer Research Technology Limited, priority 2022, published 2025)
